In patent publication US10329334B2 (SANOFI, priority 2015, dated 2019):

Legend:
[1] = biological target: T1, human lipocalin 2 (hNGAL) muteins from affinity optimization of SEQ ID NO: 55 (Homo sapiens, UniProt P80188); test: Solution binding ELISA, muteins from affinity optimization of SEQ ID NO: 55
T1 construct: C-terminal SA linker and Strep-tag II; E. coli
Description: (§1) Solution binding of muteins was assayed by a “Solution binding ELISA”, the principle of which was as follows: a constant concentration of the tested mutein was incubated with variable concentrations of ligands (Pvd I s, sa, aKG+/−Fe/Pvd II s, sa, aKG+/−Fe/Pvd III s, sa, aKG+/−Fe/Pch+/−Fe) for 1 h. After this pre-incubation in solution, an aliquot of the mutein/ligand mixture was transferred to an ELISA plate with biotinalyted Pvd I s (+Fe), Pvd II s (+Fe), Pvd III s (+Fe) or Pch immobilized via Neutravidin to measure the remaining concentration of free muteins. The concentration of free (non ligand-bound) muteins was determined via a quantitative ELISA setup.
(§2) In detail, a 384-well plate suitable for fluorescence measurements (Greiner FLUOTRAC™ 600, black flat bottom, high-binding) was coated with 20 μl of Neutravidin at a concentration of 5 μg/ml in PBS over night at 4 C. […]
(§3) The residual supernatants were discarded and 20 μl HRP-labeled anti-hNGAL antibody was added at a predetermined optimal concentration in PBS-T/BSA and incubated for 1 h at RT. […] The fluorescence intensity of every well on the plate was read using a fluorescence microplate reader (Tecan or Molecular Devices). To evaluate the data, free mutein concentration, c(mutein)free, was calculated based on the standard curve results, and plotted versus ligand concentration, c(Ligand). […]

[2] = biological target: T2, human lipocalin 2 (hNGAL) mutein SEQ ID NO: 57 (Homo sapiens, UniProt P80188, A60Y/C107S/D97R/I61W/K145L/K154N/K93R/L123Q/L56V/L90R/N116P/Q48H/Q69A/R101W/R92W/S147R/S88D/W99D/Y120E/Y126R/Y152A); test: Solution binding ELISA, mutein SEQ ID NO: 57
T2 construct: made in house; host or cells: E. coli
T2 sequence (P80188 21-198 with the stated changes): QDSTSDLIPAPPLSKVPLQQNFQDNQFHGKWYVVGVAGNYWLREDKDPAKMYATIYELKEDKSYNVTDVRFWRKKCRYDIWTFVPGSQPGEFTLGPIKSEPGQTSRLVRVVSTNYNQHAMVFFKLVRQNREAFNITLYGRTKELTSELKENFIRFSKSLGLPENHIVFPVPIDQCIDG
Description: (§5) In detail, a 384-well plate suitable for fluorescence measurements (Greiner FLUOTRAC™ 600, black flat bottom, high-binding) was coated with 20 μl of Neutravidin at a concentration of 5 μg/ml in PBS over night at 4 C. After washing, the Neutravidin-coated wells were blocked with 100 μl blocking buffer containing 0.1% Tween 20 and 2% BSA (PBS-T/BSA) for 1 h at room temperature.
(§6) The residual supernatants were discarded and 20 μl HRP-labeled anti-hNGAL antibody was added at a predetermined optimal concentration in PBS-T/BSA and incubated for 1 h at RT. […] After washing, 20 μl fluorogenic HRP substrate (QuantaBlu, Thermo) was added to each well, and the reaction was allowed to proceed for 15 to 60 minutes. The fluorescence intensity of every well on the plate was read using a fluorescence microplate reader (Tecan or Molecular Devices). […] Curve fitting was performed using GraphPad Prism 4 software.

[3] = biological target: T3, human lipocalin 2 (hNGAL) mutein SEQ ID NO: 56 (Homo sapiens, UniProt P80188, A60F/C107S/D97A/I61H/K145G/K154V/K93A/L123M/L56M/L90P/N116A/Q48H/Q69S/R101I/R92W/S147W/S88H/W99K/Y120G/Y126W/Y152T/Y72P); test: Solution binding ELISA, mutein SEQ ID NO: 56
T3 construct: made in house; host or cells: E. coli
T3 sequence (P80188 21-198 with the stated changes): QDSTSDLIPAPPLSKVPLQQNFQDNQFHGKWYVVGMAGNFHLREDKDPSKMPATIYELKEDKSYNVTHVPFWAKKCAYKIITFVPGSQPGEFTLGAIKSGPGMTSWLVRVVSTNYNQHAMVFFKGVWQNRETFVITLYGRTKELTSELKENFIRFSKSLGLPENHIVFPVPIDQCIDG
Description: as §5, §6

[4] = biological target: negative control lipocalin SEQ ID NO: 64 (Homo sapiens, UniProt P80188, C107S/Q48H); test: SPR (Biacore T200), negative control SEQ ID NO: 64; type: binding; details: 200 nM
negative control lipocalin SEQ ID NO: 64, sequence (P80188 21-198 Q48H/C107S): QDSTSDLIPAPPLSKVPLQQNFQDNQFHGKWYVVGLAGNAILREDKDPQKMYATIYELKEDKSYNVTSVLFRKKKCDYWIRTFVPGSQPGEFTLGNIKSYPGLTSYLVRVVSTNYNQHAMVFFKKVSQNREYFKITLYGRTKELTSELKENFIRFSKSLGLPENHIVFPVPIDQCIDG
Description: (§4) In a Surface Plasmon Resonance (SPR) based assay a Biacore T200 instrument (GE Healthcare) was used to measure the binding affinity of muteins to pyoverdine I succinyl, -succinamid, -α-ketoglutaryl with complexed iron ion or to pyoverdine II succinyl, -succinamid, -α-ketoglutaryl with complexed iron ion or to pyoverdine III succinyl, -succinamid, -α-ketoglutaryl with complexed iron ion. Muteins selected for binding to pyoverdines and negative control (SEQ ID NO: 64) were biotinylated for 2 h at room temperature applying an appropriate excess of EZ-Link NHS-PEG4-Biotin (Thermo, […]) followed by separation of non-reacted Biotin using a Zeba Spin Desalting Plate (Thermo, […]) according to the manufactures instructions.
In the SPR affinity assay, biotinylated muteins and negative control were captured on a sensor chip CAP using the Biotin CAPture Kit (GE Healthcare): Sensor Chip CAP is pre-immobilized with an ssDNA oligo. Undiluted Biotin CAPture Reagent (streptavidin conjugated with the complementary ss-DNA oligo) was applied at a flow rate of 2 μl/min for 300 s. Subsequently, 1 μg/ml to 100 μg/mL of biotinylated muteins or negative control were applied for 300 s at a flow rate of 5 μl/min. The reference channel was loaded with Biotin CAPture Reagent only.
Applying a flow rate of 30 μl/min, a single cycle or multi cycle kinetics approach was used with a sample contact time of 120-180 s and a dissociation time of 900-2400 s. […] After ligand immobilization, for analysis using single cycle kinetics all 4-5 concentrations of Pvd were applied consecutively in ascending order before the dissociation was monitored. For analysis using multi cycle kinetics 4 dilutions of Pvd were applied, each followed a dissociation phase. All measurements were performed at 25° C. […] Data were evaluated with Biacore T200 Evaluation software (V 1.0). Double referencing was used. A 1:1 Binding model was used to fit the raw data. […]

[5] = biological target: T4, human lipocalin 2 (hNGAL) muteins from affinity optimization of SEQ ID NO: 56 (Homo sapiens, UniProt P80188); test: Solution binding ELISA, muteins from affinity optimization of SEQ ID NO: 56
T4 construct: C-terminal SA linker and Strep-tag II; E. coli
T4 sequence (P80188 21-198, stated change not applied): as the sequence (P80188 21-198 Q48H/C107S) above, with H28Q, S87C counted along it
Description: as §1, §2, §3

[6] = biological target: T5, human lipocalin 2 (hNGAL) mutein SEQ ID NO: 8 (Homo sapiens, UniProt P80188, A60T/C107S/D97I/I100T/I61T/K145Y/K154N/K93E/L123Q/L56W/L90Q/N116G/Q48H/Q69P/R101I/R92P/S147I/S88D/W99S/Y120S/Y126H/Y152G/Y72P); test: SPR (Biacore T200), mutein SEQ ID NO: 8; type: binding; details: 25° C.
T5 construct: made in house; host or cells: E. coli
T5 sequence (P80188 other isoform, or with tags, fused parts or gaps with the stated changes): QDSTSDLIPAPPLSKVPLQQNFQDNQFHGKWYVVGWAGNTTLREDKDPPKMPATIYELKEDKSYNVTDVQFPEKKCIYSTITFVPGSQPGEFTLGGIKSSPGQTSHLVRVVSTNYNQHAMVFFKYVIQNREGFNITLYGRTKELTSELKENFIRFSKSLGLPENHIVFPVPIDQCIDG
Description: (§7) In a Surface Plasmon Resonance (SPR) based assay a Biacore T200 instrument (GE Healthcare) was used to measure the binding affinity of muteins to pyoverdine I succinyl, -succinamid, -α-ketoglutaryl with complexed iron ion or to pyoverdine II succinyl, -succinamid, -α-ketoglutaryl with complexed iron ion or to pyoverdine III succinyl, -succinamid, -α-ketoglutaryl with complexed iron ion. Muteins selected for binding to pyoverdines and negative control (SEQ ID NO: 64) were biotinylated for 2 h at room temperature applying an appropriate excess of EZ-Link NHS-PEG4-Biotin (Thermo, Cat#21329) followed by separation of non-reacted Biotin using a Zeba Spin Desalting Plate (Thermo, Cat#21329) according to the manufactures instructions.

[7] = biological target: T6, human lipocalin 2 (hNGAL) mutein SEQ ID NO: 10 (Homo sapiens, UniProt P80188, A60T/C107S/D97T/I61T/K145Y/K154N/K93E/L123E/L56W/L90Q/N116D/Q48H/Q69P/R101I/R92P/S147D/S88D/V131M/W99S/Y120N/Y126H/Y152G/Y72P); test: SPR (Biacore T200), mutein SEQ ID NO: 10; type: binding; details: 25° C.
T6 construct: made in house; host or cells: E. coli
T6 sequence (P80188 other isoform, or with tags, fused parts or gaps with the stated changes): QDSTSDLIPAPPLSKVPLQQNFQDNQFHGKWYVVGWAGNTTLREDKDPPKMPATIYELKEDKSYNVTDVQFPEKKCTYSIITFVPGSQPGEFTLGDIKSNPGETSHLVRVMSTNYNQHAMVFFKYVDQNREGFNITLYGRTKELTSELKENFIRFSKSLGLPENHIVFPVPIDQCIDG
Description: as §7

[8] = biological target: T7, human lipocalin 2 (hNGAL) mutein SEQ ID NO: 9 (Homo sapiens, UniProt P80188, A60T/C107S/D97I/I61T/K145Y/K154N/K93D/L123D/L56W/L90Q/N116G/Q48H/Q69P/R101I/R92P/S147V/S88D/W99S/Y120N/Y126H/Y152G/Y72P); test: SPR (Biacore T200), mutein SEQ ID NO: 9; type: binding; details: 25° C.
T7 construct: made in house; host or cells: E. coli
T7 sequence (P80188 other isoform, or with tags, fused parts or gaps with the stated changes): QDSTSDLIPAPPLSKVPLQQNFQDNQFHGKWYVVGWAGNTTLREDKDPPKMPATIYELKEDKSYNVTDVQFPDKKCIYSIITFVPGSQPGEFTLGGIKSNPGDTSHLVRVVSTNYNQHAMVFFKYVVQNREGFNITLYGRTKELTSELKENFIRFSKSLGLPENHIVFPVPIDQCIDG
Description: as §7

[9] = biological target: T8, human lipocalin 2 (hNGAL) mutein SEQ ID NO: 32 (Homo sapiens, UniProt P80188, A60E/C107S/D97N/E64D/I61V/K145N/K154W/K93N/L123V/L56V/L90R/N116K/N85D/Q48H/Q69G/R101E/R92H/S147K/S88E/W99F/Y120N/Y126M/Y152G/Y72P); test: SPR (Biacore T200), mutein SEQ ID NO: 32; type: binding; details: 25° C.
T8 construct: made in house; host or cells: E. coli
T8 sequence (P80188 21-198 with the stated changes): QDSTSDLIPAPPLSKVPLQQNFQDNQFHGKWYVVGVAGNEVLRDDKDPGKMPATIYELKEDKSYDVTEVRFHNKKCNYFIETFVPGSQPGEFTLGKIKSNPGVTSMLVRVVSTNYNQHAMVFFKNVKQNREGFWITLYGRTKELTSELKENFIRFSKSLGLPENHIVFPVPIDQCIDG
Description: as §7

[10] = biological target: T9, human lipocalin 2 (hNGAL) mutein SEQ ID NO: 16 (Homo sapiens, UniProt P80188, A60T/C107S/D97I/I100T/I61A/K145Y/K154N/K93E/K95E/L123Q/L56W/L90Q/N116G/N85D/Q69P/R101I/R92P/S147T/S88D/T156A/T74V/W99S/Y120S/Y126H/Y152G/Y72P); test: SPR (Biacore T200), mutein SEQ ID NO: 16; type: binding; details: 25° C.
T9 construct: made in house; host or cells: E. coli
T9 sequence (P80188 21-198 with the stated changes): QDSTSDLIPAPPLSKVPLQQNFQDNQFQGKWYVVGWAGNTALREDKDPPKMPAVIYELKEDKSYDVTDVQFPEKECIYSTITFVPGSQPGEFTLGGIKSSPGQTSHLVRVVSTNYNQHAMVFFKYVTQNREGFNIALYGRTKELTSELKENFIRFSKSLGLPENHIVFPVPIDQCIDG
Description: as §7

[11] = biological target: T10, human lipocalin 2 (hNGAL) mutein SEQ ID NO: 33 (Homo sapiens, UniProt P80188, A60E/C107S/D97N/E64D/I61V/K145N/K154W/K93N/L123V/L56V/L90R/N116K/N85Q/Q48H/Q69G/R101E/R92H/S147K/S88E/W99F/Y120N/Y126M/Y152G/Y72P); test: SPR (Biacore T200), mutein SEQ ID NO: 33; type: binding; details: 25° C.
T10 construct: made in house; host or cells: E. coli
T10 sequence (P80188 21-198 with the stated changes): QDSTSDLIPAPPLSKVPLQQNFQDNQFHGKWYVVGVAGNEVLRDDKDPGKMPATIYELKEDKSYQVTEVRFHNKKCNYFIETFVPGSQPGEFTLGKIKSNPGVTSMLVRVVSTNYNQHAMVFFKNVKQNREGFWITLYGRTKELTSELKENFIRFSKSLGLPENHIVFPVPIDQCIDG
Description: as §7

[12] = biological target: T11, human lipocalin 2 (hNGAL) mutein SEQ ID NO: 13 (Homo sapiens, UniProt P80188, A60T/C107S/D97I/I100T/I61T/K145Y/K154N/K93E/K95E/L123Q/L56W/L90Q/N116G/Q48H/Q69P/R101I/R92P/S147T/S88D/T74V/W99S/Y120S/Y126H/Y152G/Y72P); test: SPR (Biacore T200), mutein SEQ ID NO: 13; type: binding; details: 25° C.
T11 construct: made in house; host or cells: E. coli
T11 sequence (P80188 21-198 with the stated changes): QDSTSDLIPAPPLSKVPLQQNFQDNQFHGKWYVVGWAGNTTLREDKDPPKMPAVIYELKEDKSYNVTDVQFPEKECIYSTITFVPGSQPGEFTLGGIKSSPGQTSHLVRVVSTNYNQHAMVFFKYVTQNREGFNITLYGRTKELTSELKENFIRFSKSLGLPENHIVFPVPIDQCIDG
Description: as §7

[13] = biological target: T12, human lipocalin 2 (hNGAL) mutein SEQ ID NO: 53 (Homo sapiens, UniProt P80188, A60L/C107S/D97K/I61A/K154W/K93H/L123Q/L56E/L62R/L90R/N116L/N85D/Q69M/R101V/S125P/S147V/S88E/W99D/Y120D/Y126E/Y72M); test: SPR (Biacore T200), mutein SEQ ID NO: 53; type: binding; details: 25° C.
T12 construct: made in house; host or cells: E. coli
T12 sequence (P80188 21-198 with the stated changes): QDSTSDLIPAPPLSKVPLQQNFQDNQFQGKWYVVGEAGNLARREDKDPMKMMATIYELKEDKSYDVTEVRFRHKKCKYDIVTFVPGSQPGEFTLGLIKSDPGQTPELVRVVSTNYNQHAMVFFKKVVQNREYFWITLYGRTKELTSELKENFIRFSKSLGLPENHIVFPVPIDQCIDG
Description: as §4
In the SPR affinity assay, biotinylated muteins and negative control were captured on a sensor chip CAP using the Biotin CAPture Kit (GE Healthcare): Sensor Chip CAP is pre-immobilized with an ssDNA oligo. […]
Applying a flow rate of 30 μl/min, a single cycle or multi cycle kinetics approach was used with a sample contact time of 120-180 s and a dissociation time of 900-2400 s. […] After ligand immobilization, for analysis using single cycle kinetics all 4-5 concentrations of Pvd were applied consecutively in ascending order before the dissociation was monitored. […] Data were evaluated with Biacore T200 Evaluation software (V 1.0). […]

[14] = biological target: T13, human lipocalin 2 (hNGAL) mutein SEQ ID NO: 36 (Homo sapiens, UniProt P80188, A60T/C107S/D97H/K145I/K154W/K93R/L123T/L56V/L90R/N85D/Q69G/R101D/R92I/S147R/S88D/T74A/W99Y/Y126Q/Y152I/Y72N); test: SPR (Biacore T200), mutein SEQ ID NO: 36; type: binding; details: 25° C.
T13 construct: made in house; host or cells: E. coli
T13 sequence (P80188 21-198 with the stated changes): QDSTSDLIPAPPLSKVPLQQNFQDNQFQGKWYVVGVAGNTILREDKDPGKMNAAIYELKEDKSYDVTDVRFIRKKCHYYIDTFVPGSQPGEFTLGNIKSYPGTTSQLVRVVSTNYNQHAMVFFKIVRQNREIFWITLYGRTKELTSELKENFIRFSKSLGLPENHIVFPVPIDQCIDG
Description: as §7

[15] = biological target: T14, human lipocalin 2 (hNGAL) mutein SEQ ID NO: 11 (Homo sapiens, UniProt P80188, A60T/C107S/D97V/I61T/K145Y/K154N/K93D/L123N/L56W/L90Q/N116G/Q48H/Q69P/R101I/R92P/S147V/S88D/W99S/Y120N/Y126H/Y152G/Y72P); test: SPR (Biacore T200), mutein SEQ ID NO: 11; type: binding; details: 25° C.
T14 construct: made in house; host or cells: E. coli
T14 sequence (P80188 21-198 with the stated changes): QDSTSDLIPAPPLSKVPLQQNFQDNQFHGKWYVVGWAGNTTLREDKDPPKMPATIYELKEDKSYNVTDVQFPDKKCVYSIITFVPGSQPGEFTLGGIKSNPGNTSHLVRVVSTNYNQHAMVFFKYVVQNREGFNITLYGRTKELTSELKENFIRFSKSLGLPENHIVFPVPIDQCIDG
Description: as §7

[16] = biological target: T15, human lipocalin 2 (hNGAL) mutein SEQ ID NO: 35 (Homo sapiens, UniProt P80188, A60T/C107S/D97H/K145I/K154W/K93R/L123T/L56V/L90R/N85Q/Q48H/Q69G/R101D/R92I/S147R/S88D/T74A/W99Y/Y126Q/Y152I/Y72N); test: SPR (Biacore T200), mutein SEQ ID NO: 35; type: binding
T15 construct: made in house; host or cells: E. coli
T15 sequence (P80188 21-198 with the stated changes): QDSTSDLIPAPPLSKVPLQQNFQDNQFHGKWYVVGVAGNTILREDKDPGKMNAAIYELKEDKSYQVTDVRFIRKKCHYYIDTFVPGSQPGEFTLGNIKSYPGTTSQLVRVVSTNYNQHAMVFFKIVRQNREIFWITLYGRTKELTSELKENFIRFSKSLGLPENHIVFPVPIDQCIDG
Description: as §7

[17] = biological target: natural wild-type hNGAL (human lipocalin 2) (Homo sapiens, UniProt P80188); details: Peek et al. 2012; cited from earlier work
natural wild-type hNGAL (human lipocalin 2), sequence (P80188 21-198): as the sequence (P80188 21-198 Q48H/C107S) above, with H28Q, S87C counted along it

T1 sequence (P80188 21-198, stated change not applied): as the sequence (P80188 21-198 Q48H/C107S) above, with H28Q, S87C counted along it

Question: Which “affinity (in words)” value ([1]; solution binding ELISA) does the source give for `CN1C([C@H]2CSC(c3ccccc3O)=N2)SC[C@H]1C(=O)O.[Fe+3]` (stereo partly shown) [pch (+Fe), pyochelin] here?
Answer: Its value is “single digit nM affinity”.

Question: And the “affinity (in words)” value [2]?
Answer: Its value is “two- to three digit nM affinity”.

Question: What about the “affinity (in words)” value [3] of the same molecule?
Answer: The value was “two- to three digit nM affinity”.

Question: And the “absence of binding to negative control” value [4]?
Answer: The value was “absence of binding”.

Question: What about the “affinity (in words)” value [5] of the same molecule?
Answer: Its value is “no or weak affinity”.

Question: For `O=C(N[C@H]1COC(=O)[C@@H](NC(=O)c2cccc(O)c2O)COC(=O)[C@@H](NC(=O)c2cccc(O)c2O)COC1=O)c1cccc(O)c1O.[Fe+3]` [Fe-Enterobactin, enterobactin], which KD [6] is on record?
Answer: The KD was “no bdg”.

Question: And the KD [7]?
Answer: Its KD is “no bdg”.

Question: What about the KD [8] of the same molecule?
Answer: Its KD is “no bdg”.

Question: And the KD [9]?
Answer: Its KD is “no bdg”.

Question: And the KD [10]?
Answer: The KD was “no bdg”.

Question: And the KD [11]?
Answer: The KD was “no bdg”.

Question: What about the KD [12] of the same molecule?
Answer: Its KD is “no bdg”.

Question: What about the KD [13] of the same molecule?
Answer: The KD was “no bdg”.

Question: What about the KD [14] of the same molecule?
Answer: The KD was “no bdg”.

Question: And the KD [15]?
Answer: The KD was “no bdg”.

Question: What about the KD ([16]; 25° C.) of the same molecule?
Answer: Its KD is “no bdg”.

Question: With Pyoverdine as the molecule, how does the “binding to wild-type hNGAL” value [17] read?
Answer: The value was “did not bind”.

Question: What does the source list for `CN1C([C@H]2CSC(c3ccccc3O)=N2)SC[C@H]1C(=O)O` (stereo partly shown) [pch (−Fe), pyochelin]?
Answer: improved affinity ([1]; versus SEQ ID NO: 55): more than 75 fold; affinity (in words) [2]: weak affinity or not at all; affinity (in words) [3]: weak affinity or not at all

Question: For `O=C(N[C@H]1COC(=O)[C@@H](NC(=O)c2cccc(O)c2O)COC(=O)[C@@H](NC(=O)c2cccc(O)c2O)COC1=O)c1cccc(O)c1O` [Enterobactin, enterobactin, reference compound], which “binding to wild-type hNGAL” value [17] is on record?
Answer: Its value is “high affinity”.

Question: What about the “specificity and crossreactivity (binding)” value ([16]; 2 μM for all analytes) of the same molecule?
Answer: The value was “absence of binding”.
